Experiments:
Test in all cases: biochemical
Design in all cases: DiscoveRx KINOMEscan competition binding, percent of DMSO control signal at 100 nM
Details in all cases: read-out: Fig. 4a / Percent Control / Compound 1; percent of DMSO control, competition binding
SRPK1 = SRPK1 (Homo sapiens, UniProt Q96SB4)
BUB1 = BUB1 (Homo sapiens, UniProt O43683)
ASK2 = target: T1, ASK2 (Homo sapiens, UniProt O95382)
T1 construct: gene MAP3K6

GSK3B = GSK3B (Homo sapiens, UniProt P49841)
MAP4K5 = MAP4K5 (Homo sapiens, UniProt Q9Y4K4)
TNIK = TNIK (Homo sapiens, UniProt Q9UKE5)
ICK = target: T2, ICK (Homo sapiens, UniProt Q9UPZ9)
T2 construct: gene CILK1

MAP3K1 = MAP3K1 (Homo sapiens, UniProt Q13233)
EPHA3 = EPHA3 (Homo sapiens, UniProt P29320)
STK35 = STK35 (Homo sapiens, UniProt Q8TDR2)
[1] = target: T3, RSK1(Kin.Dom.2-C-terminal) (Homo sapiens, UniProt Q15418)
T3 construct: gene RPS6KA1; Kin.Dom.2-C-terminal

STK16 = STK16 (Homo sapiens, UniProt O75716)
BRAF = BRAF (Homo sapiens, UniProt P15056)
MAP4K4 = MAP4K4 (Homo sapiens, UniProt O95819)
MLK3 = target: T4, MLK3 (Homo sapiens, UniProt Q16584)
T4 construct: gene MAP3K11

ERBB4 = ERBB4 (Homo sapiens, UniProt Q15303)
[2] = target: T5, RSK1(Kin.Dom.1-N-terminal) (Homo sapiens, UniProt Q15418)
T5 construct: gene RPS6KA1; Kin.Dom.1-N-terminal

DAPK2 = DAPK2 (Homo sapiens, UniProt Q9UIK4)
NEK10 = NEK10 (Homo sapiens, UniProt Q6ZWH5)
PFTAIRE2 = target: T6, PFTAIRE2 (Homo sapiens, UniProt Q96Q40)
T6 construct: gene CDK15

CLK3 = CLK3 (Homo sapiens, UniProt P49761)
MRCKA = target: T7, MRCKA (Homo sapiens, UniProt Q5VT25)
T7 construct: gene CDC42BPA

PAK7 = target: T8, PAK7 (Homo sapiens, UniProt Q9P286)
T8 construct: gene PAK5

CDKL3 = CDKL3 (Homo sapiens, UniProt Q8IVW4)
FGFR1 = FGFR1 (Homo sapiens, UniProt P11362)
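Further: KINOMEscan kinase panel binding assay, signal normalized between DMSO as 100% and a positive control compound as 0%.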

Chain of STK35 (Q8TDR2 whole entry): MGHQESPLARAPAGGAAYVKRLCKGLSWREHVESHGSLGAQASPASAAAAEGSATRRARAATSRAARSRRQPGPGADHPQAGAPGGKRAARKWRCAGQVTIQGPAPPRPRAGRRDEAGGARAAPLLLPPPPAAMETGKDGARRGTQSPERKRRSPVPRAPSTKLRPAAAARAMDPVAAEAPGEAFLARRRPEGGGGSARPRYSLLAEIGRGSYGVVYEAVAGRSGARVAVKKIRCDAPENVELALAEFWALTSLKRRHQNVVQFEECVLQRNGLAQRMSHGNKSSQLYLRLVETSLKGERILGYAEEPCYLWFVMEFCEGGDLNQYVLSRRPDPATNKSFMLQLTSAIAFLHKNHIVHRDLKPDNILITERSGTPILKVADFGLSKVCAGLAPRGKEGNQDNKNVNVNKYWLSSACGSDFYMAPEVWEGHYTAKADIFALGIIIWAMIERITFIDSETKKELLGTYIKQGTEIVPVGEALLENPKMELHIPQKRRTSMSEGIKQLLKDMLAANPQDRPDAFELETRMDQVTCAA
T8 sequence (Q9P286 whole entry): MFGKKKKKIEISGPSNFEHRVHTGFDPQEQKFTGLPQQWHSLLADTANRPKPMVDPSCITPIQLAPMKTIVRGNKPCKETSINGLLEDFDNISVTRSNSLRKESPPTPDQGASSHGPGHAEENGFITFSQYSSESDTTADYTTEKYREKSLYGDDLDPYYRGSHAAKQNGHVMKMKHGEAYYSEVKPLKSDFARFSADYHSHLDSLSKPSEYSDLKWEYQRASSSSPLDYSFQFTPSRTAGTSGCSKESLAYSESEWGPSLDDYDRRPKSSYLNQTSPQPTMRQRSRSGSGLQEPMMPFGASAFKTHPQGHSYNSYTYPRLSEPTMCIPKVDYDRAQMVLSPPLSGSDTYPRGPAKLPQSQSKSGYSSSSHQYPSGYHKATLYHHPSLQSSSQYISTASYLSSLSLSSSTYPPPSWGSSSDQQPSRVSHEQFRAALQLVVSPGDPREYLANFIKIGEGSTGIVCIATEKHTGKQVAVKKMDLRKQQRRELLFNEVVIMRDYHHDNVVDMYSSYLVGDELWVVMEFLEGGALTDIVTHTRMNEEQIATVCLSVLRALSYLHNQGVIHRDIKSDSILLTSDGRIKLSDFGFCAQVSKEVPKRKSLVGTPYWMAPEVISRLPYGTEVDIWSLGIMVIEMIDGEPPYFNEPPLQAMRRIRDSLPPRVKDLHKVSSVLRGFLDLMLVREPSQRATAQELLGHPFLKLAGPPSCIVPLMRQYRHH
Chain of BUB1 (O43683 whole entry): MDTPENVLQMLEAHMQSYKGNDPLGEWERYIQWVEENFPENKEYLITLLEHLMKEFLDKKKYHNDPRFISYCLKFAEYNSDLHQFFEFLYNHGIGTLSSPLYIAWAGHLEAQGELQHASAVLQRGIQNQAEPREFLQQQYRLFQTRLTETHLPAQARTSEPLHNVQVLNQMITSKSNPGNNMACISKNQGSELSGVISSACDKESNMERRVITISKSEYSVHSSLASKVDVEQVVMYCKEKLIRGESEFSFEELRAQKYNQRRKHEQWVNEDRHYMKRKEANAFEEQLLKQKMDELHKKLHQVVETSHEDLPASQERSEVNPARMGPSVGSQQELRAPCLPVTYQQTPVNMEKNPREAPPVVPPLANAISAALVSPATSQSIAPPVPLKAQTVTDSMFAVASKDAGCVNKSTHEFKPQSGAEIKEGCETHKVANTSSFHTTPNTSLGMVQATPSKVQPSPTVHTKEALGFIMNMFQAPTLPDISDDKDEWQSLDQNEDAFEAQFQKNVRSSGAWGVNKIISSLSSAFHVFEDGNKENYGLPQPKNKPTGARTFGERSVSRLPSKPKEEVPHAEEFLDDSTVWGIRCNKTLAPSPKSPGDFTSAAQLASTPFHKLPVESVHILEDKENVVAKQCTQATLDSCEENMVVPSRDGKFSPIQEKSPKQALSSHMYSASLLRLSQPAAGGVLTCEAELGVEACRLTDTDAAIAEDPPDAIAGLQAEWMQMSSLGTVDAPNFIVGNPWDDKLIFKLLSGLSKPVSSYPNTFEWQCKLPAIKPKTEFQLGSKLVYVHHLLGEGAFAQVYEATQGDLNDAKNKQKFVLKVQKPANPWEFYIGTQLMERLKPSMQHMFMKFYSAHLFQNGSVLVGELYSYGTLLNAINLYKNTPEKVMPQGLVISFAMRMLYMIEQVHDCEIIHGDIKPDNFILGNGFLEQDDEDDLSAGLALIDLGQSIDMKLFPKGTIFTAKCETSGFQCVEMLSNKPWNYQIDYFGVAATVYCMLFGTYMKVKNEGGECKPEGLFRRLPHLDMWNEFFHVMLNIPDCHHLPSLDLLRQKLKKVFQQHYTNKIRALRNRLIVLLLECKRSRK
Chain of DAPK2 (Q9UIK4 whole entry): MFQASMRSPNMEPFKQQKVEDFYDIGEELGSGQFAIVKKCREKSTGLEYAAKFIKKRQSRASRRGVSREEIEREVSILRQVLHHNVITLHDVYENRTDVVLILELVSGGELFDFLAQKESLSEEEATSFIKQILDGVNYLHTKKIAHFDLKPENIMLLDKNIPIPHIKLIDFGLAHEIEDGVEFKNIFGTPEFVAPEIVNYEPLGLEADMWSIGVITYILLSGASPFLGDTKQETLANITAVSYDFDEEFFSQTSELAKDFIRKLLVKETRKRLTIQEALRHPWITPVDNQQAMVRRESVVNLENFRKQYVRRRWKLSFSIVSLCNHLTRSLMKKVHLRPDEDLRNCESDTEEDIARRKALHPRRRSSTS
Chain of GSK3B (P49841 whole entry): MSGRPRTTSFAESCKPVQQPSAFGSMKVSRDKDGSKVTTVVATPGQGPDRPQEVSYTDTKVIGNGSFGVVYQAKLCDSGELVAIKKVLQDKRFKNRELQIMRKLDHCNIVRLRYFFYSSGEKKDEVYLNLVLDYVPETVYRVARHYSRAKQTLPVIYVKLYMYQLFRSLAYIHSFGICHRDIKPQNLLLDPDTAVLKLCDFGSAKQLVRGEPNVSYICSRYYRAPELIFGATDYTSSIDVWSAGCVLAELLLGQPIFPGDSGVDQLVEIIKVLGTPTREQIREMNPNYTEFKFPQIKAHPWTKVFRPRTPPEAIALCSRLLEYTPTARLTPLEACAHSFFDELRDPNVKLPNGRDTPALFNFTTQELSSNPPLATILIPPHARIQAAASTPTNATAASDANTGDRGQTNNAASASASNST
Chain of ERBB4 (Q15303 whole entry): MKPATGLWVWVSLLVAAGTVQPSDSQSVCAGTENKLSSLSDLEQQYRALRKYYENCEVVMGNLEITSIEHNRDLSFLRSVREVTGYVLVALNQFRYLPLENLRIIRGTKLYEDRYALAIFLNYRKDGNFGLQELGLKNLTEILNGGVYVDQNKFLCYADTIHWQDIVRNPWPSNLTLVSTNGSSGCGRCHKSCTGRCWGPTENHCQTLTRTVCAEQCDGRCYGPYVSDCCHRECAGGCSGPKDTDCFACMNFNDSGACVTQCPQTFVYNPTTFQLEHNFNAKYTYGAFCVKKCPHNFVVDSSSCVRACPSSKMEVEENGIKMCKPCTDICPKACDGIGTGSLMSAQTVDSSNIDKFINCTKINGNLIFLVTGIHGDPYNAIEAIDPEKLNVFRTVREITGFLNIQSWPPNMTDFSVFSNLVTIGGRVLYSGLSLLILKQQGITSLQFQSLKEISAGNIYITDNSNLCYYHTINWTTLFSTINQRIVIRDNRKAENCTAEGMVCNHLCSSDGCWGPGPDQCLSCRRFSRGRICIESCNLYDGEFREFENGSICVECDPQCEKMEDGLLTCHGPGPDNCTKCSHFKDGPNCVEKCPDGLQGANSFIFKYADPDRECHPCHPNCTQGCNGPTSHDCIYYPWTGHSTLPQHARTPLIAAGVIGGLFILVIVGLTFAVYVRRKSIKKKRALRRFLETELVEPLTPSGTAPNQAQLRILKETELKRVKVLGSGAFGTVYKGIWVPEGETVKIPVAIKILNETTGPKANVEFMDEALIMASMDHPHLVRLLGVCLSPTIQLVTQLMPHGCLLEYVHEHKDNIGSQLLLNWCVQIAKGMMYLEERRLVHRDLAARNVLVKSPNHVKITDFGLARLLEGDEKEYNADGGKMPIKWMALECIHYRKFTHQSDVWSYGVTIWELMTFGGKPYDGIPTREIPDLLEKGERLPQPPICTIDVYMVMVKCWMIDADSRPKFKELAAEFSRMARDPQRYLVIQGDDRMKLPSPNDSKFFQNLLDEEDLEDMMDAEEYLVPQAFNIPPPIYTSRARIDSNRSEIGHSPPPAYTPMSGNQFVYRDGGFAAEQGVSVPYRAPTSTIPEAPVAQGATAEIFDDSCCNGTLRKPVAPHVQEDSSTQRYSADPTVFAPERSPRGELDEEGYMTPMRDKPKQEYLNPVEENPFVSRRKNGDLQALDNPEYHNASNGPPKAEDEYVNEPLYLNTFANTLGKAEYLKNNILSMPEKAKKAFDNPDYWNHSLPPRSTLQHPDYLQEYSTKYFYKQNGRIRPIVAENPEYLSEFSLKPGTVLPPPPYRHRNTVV
Chain of STK16 (O75716 whole entry): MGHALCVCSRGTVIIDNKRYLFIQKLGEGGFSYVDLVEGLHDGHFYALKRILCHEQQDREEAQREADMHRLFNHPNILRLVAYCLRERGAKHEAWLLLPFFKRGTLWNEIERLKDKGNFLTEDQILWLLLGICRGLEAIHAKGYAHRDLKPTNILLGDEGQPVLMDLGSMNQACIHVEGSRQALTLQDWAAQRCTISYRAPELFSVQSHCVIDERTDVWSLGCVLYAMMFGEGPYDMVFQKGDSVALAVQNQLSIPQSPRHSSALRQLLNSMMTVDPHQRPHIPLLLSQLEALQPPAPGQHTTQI

Cc1cnc2nc1Nc1cccc(c1)COCc1cc(ccc1OCCN1CCCC1)N2 [Compound 1]
remaining binding at 0.1 µM (SRPK1): 97%
remaining binding at 0.1 µM (BUB1): 82%
remaining binding at 0.1 µM (ASK2): 96%
remaining binding at 0.1 µM (GSK3B): 84%
remaining binding at 0.1 µM (MAP4K5): 98%
remaining binding at 0.1 µM (TNIK): 80%
remaining binding at 0.1 µM (ICK): 80%
remaining binding at 0.1 µM (MAP3K1): 79%
remaining binding at 0.1 µM (EPHA3): 85%
remaining binding at 0.1 µM (STK35): 92%
remaining binding at 0.1 µM [1]: 98%
remaining binding at 0.1 µM (STK16): 18%
remaining binding at 0.1 µM (BRAF): 93%
remaining binding at 0.1 µM (MAP4K4): 82%
remaining binding at 0.1 µM (MLK3): 94%
remaining binding at 0.1 µM (ERBB4): 82%
remaining binding at 0.1 µM [2]: 97%
remaining binding at 0.1 µM (DAPK2): 98%
remaining binding at 0.1 µM (NEK10): 95%
remaining binding at 0.1 µM (PFTAIRE2): 85%
remaining binding at 0.1 µM (CLK3): 100%
remaining binding at 0.1 µM (MRCKA): 99%
remaining binding at 0.1 µM (PAK7): 84%
remaining binding at 0.1 µM (CDKL3): 77%
remaining binding at 0.1 µM (FGFR1): 89%

From PMC10382584, “Macrocyclization of linear molecules by deep learning to facilitate macrocyclic drug candidates discovery” (Nature Communications, 2023)
